Laboratory results published in US20260078108A1, “SOLID FORMS OF A ROCK INHIBITOR” (REDX PHARMA PLC, priority 2022, published 2026).

Columns and labels:
Haspin = target: T1, Haspin (Homo sapiens, UniProt Q8TF76); assay: Kinase panel 33P-ATP filter assay, Haspin; format: biochemical; conditions: HCl salt tested; ATP Conc. 20 μM (Km); read-out: Compound IC50 (nM) Haspin
T1 sequence (Q8TF76 1-798): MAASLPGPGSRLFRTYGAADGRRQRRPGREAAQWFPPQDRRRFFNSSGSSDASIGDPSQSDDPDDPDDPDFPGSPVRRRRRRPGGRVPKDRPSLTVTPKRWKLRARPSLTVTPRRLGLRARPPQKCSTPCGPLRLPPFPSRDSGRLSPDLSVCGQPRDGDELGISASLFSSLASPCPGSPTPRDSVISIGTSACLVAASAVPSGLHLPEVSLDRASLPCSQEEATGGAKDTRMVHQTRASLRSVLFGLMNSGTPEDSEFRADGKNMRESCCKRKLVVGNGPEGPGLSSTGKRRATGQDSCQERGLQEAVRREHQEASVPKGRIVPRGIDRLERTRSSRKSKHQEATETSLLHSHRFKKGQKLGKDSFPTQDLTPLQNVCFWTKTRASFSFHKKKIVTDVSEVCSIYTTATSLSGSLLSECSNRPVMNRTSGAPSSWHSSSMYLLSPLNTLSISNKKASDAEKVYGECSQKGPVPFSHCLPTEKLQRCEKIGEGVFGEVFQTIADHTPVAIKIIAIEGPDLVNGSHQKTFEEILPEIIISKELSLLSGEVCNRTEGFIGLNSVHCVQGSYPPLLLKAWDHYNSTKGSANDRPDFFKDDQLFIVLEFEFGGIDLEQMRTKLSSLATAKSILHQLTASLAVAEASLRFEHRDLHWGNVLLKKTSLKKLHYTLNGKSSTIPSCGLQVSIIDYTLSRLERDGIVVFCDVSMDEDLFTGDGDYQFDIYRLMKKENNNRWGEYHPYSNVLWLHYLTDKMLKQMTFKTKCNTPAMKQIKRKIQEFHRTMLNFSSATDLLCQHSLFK
Experimental: (§1) The HCl salts of S enantiomer and the R enantiomer of compound A were tested against a panel of kinases.
(§2) Compounds were received as powder and resuspended to 10 mM DMSO stock. Compounds were tested in 10-dose IC50 mode with a 3-fold serial dilution starting at 10 μM. Control compound, staurosporine, was tested in 10-dose IC50 mode with 4-fold serial dilution starting at 20 μM.
(§3) Reaction Conditions: Buffer Conditions: 20 mM HEPES ((4-(2-hydroxyethyl)-1-piperazineethanesulfonic acid; pH 7.5), 10 mM MgCl2, 1 mM EGTA (Ethyleneglycol-bis(p-aminoethyl)-N,N,N′,N′-tetraacetic Acid), 0.01% Brij35, 0.02 mg/ml BSA (Bovine serum albumin), 0.1 mM Na3VO4, 2 mM DTT (Dithiothreitol), 1% DMSO. Reaction Procedure: 1. Prepare indicated substrate in freshly prepared reaction buffer. 2. Deliver required cofactors to the substrate solution above. 3. Deliver indicated kinase into the substrate solution and mix gently. 4. Deliver compounds in DMSO into the kinase reaction mixture utilizing acoustic technology (Echo550). 5. Deliver ^33P-ATP (specific activity 0.01 μCi/μl final) into the reaction mixture to initiate the reaction. 6. Incubate kinase reaction for 120 minutes at room temperature. 7. […] Data Analysis: Kinase activity data were expressed as the percent remaining kinase activity in test samples compared to vehicle (dimethyl sulfoxide) reactions. […]

PKCd = PKCd (Homo sapiens, UniProt Q05655); assay: Kinase panel 33P-ATP filter assay, PKCd; format: biochemical; conditions: HCl salt tested; ATP Conc. 10 μM (Km); read-out: Compound IC50 (nM) PKCd
Experimental: as §1, §2, §3

PKCtheta = PKCtheta (Homo sapiens, UniProt Q04759); assay: Kinase panel 33P-ATP filter assay, PKCtheta; format: biochemical; conditions: HCl salt tested; ATP Conc. 30 μM (Km); read-out: Compound IC50 (nM) PKCtheta
Experimental: as §1, §2, §3

CB1 (h) = target: T2, CB1 (h) (Homo sapiens, UniProt P21554); assay: CEREP panel CB1 (h) agonist effect, cAMP HTRF; format: cell-based; conditions: HCl salt tested, CHO cells
T2 construct: expressed in transfected cells; host or cells: CHO cells
Source text: (§4) The use of in vitro pharmacological screening against a diverse range of targets (receptors, ion channels, enzymes and transporters) is used to identify undesirable off-target activity that may cause adverse drug reactions in humans. Screening panels (e.g. SafetyScreen44™ Panel, Eurofins) comprise a selection of off-targets linked with known issues in humans that could hinder or halt the development of drug candidates or market withdrawal if discovered after a drug is approved. The HCl salts of the S enantiomer and the R enantiomer of compound A were tested against a panel of such targets.
(§5) The tests were carried out according to the methods described in the following tables and indicated literature references.

CB2 (h) = target: T3, CB2 (h) (Homo sapiens, UniProt P34972); assay: CEREP panel CB2 (h) antagonist effect, cAMP HTRF; format: cell-based; conditions: HCl salt tested; CHO cells, WIN 55212-2 (3 nM)
T3 construct: expressed in transfected cells; host or cells: CHO cells
Source text: as §4, §5

M1 (h) = target: T4, M1 (h) (Homo sapiens, UniProt P11229); assay: CEREP panel M1 (h) agonist effect, intracellular Ca2+ fluorimetry; format: cell-based; conditions: HCl salt tested, CHO cells
T4 construct: expressed in transfected cells; host or cells: CHO cells
T4 sequence (P11229 1-460): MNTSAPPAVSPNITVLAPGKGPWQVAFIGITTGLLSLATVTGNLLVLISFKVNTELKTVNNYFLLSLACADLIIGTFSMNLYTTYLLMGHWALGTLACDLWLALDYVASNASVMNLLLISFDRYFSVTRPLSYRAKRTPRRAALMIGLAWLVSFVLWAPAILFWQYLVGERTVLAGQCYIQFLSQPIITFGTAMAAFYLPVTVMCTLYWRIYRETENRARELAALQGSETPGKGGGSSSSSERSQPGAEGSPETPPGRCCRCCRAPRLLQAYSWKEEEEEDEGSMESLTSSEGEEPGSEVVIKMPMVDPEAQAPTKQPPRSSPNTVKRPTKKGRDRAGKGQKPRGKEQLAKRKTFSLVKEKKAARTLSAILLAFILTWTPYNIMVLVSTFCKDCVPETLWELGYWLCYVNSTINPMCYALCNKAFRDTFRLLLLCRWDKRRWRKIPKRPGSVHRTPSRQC
Source text: as §4, §5

μ (MOP) (h) = target: T5, μ (MOP) (h) (Homo sapiens, UniProt P35372); assay: CEREP panel mu (MOP) (h) agonist effect, cAMP HTRF; format: cell-based; conditions: HCl salt tested, CHO cells
T5 construct: expressed in transfected cells; host or cells: CHO cells
Source text: as §4, §5

Serotonin transporter = target: T6, Serotonin transporter (Homo sapiens, UniProt P31645); assay: CEREP panel serotonin transporter uptake (h), [3H]5HT incorporation; format: cell-based; conditions: HCl salt tested; [3H]5HT incorporation in cells
T6 construct: expressed in transfected cells
Source text: as §4, §5

ROCK1 = ROCK1 (Homo sapiens, UniProt Q13464); assay: Activity against kinase ROCK1; format: biochemical; conditions: comparison of enantiomers
ROCK2 = ROCK2 (Homo sapiens, UniProt O75116); assay: Activity against kinase ROCK2; format: biochemical; conditions: comparison of enantiomers

T3 sequence (P34972 whole entry): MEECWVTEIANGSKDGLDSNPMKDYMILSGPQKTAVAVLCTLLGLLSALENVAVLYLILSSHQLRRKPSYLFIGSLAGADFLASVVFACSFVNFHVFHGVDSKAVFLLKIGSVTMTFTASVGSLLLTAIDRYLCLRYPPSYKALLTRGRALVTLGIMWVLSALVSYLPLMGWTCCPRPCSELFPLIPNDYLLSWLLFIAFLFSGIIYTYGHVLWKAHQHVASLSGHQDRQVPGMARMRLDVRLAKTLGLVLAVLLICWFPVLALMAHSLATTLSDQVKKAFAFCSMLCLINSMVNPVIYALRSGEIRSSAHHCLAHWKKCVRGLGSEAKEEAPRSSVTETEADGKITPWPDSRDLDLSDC
T5 sequence (P35372 whole entry): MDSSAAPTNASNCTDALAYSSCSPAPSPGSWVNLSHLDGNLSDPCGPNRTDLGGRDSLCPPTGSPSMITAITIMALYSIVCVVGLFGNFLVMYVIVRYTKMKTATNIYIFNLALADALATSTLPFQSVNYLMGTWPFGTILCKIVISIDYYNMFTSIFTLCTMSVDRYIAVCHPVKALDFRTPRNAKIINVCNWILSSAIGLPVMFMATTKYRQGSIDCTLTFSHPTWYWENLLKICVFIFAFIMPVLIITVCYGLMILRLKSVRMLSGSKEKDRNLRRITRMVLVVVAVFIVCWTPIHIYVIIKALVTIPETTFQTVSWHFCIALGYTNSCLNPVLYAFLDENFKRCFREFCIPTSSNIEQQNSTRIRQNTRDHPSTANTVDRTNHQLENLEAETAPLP
Chain of ROCK1 (Q13464 whole entry, species assumed): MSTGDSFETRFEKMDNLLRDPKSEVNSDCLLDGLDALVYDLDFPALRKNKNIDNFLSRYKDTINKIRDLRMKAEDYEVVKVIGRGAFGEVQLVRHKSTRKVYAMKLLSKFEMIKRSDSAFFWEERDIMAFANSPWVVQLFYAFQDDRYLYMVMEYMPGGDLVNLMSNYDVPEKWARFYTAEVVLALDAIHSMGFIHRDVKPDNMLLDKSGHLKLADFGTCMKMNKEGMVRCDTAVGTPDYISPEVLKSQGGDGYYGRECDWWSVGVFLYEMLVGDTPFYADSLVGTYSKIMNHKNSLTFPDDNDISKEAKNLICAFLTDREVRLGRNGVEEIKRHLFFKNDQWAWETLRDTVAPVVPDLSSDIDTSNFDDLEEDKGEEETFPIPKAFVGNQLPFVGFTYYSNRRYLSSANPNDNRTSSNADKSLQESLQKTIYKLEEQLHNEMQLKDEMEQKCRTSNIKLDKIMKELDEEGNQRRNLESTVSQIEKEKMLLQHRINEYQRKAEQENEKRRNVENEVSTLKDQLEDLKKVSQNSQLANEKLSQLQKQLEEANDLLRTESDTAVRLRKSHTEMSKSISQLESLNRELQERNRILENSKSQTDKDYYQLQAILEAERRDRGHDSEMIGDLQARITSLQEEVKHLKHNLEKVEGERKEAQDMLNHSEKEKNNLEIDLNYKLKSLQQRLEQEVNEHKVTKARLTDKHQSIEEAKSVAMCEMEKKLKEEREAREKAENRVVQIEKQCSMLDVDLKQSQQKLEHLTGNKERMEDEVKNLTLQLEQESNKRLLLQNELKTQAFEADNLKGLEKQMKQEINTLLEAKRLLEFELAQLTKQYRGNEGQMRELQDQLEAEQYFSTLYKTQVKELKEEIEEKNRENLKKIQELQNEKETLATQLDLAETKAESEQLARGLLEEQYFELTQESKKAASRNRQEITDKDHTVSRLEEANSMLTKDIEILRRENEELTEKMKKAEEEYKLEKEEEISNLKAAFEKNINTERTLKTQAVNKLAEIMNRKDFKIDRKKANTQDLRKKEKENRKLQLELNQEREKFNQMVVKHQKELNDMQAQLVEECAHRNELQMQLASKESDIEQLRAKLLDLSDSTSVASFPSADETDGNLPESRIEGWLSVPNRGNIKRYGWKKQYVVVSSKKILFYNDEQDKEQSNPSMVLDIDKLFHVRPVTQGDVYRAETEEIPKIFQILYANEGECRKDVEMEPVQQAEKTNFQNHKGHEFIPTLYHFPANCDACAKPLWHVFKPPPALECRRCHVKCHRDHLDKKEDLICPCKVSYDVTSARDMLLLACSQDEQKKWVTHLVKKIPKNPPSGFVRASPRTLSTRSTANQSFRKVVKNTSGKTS
T6 sequence (P31645 whole entry): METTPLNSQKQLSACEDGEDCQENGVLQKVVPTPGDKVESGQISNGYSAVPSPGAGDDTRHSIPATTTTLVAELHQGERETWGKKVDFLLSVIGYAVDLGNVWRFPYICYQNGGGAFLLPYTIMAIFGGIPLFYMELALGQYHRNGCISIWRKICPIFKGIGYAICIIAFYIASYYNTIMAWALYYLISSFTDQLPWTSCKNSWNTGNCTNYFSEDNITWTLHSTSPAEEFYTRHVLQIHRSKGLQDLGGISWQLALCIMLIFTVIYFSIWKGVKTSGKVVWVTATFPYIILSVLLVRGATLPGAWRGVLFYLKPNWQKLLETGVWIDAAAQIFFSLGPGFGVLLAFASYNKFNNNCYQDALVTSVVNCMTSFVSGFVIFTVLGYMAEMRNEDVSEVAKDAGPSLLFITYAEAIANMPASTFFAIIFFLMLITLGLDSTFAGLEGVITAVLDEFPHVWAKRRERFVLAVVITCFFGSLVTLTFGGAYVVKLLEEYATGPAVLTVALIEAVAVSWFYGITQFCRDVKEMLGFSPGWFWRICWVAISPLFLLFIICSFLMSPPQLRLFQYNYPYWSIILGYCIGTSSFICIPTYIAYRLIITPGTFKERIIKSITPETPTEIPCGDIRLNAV
T2 sequence (P21554 whole entry): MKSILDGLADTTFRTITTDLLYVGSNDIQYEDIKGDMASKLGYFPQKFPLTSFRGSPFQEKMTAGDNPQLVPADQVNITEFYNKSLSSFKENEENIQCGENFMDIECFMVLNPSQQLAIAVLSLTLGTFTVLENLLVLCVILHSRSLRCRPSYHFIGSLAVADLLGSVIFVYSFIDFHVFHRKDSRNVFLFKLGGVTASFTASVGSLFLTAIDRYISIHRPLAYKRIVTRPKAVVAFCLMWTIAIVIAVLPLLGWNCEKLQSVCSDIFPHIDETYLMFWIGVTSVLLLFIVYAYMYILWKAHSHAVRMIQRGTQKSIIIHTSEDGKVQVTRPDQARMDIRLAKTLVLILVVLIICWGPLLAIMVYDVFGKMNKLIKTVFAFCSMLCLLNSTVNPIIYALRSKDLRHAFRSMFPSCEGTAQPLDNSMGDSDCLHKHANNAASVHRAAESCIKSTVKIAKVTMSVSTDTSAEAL
Chain of PKCtheta (Q04759 whole entry): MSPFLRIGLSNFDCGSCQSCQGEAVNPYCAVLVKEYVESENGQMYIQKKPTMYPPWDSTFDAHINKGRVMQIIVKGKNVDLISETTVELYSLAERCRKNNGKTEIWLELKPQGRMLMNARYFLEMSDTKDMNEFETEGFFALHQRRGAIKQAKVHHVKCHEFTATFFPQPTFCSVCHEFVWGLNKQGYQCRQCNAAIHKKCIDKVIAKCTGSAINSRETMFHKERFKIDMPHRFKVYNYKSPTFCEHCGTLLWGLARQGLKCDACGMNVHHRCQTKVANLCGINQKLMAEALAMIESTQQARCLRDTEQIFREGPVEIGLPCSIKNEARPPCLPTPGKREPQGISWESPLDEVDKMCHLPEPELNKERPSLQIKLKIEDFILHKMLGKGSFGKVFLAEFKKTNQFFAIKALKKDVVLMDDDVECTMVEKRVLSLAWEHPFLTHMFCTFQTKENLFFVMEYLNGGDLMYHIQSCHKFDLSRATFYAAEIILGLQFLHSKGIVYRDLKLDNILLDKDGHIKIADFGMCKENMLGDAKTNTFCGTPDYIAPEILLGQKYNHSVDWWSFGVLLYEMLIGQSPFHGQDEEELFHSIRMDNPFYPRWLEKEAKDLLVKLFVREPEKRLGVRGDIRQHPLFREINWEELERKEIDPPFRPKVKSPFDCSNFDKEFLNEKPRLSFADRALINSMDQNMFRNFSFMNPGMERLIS
Chain of PKCd (Q05655 whole entry, species assumed): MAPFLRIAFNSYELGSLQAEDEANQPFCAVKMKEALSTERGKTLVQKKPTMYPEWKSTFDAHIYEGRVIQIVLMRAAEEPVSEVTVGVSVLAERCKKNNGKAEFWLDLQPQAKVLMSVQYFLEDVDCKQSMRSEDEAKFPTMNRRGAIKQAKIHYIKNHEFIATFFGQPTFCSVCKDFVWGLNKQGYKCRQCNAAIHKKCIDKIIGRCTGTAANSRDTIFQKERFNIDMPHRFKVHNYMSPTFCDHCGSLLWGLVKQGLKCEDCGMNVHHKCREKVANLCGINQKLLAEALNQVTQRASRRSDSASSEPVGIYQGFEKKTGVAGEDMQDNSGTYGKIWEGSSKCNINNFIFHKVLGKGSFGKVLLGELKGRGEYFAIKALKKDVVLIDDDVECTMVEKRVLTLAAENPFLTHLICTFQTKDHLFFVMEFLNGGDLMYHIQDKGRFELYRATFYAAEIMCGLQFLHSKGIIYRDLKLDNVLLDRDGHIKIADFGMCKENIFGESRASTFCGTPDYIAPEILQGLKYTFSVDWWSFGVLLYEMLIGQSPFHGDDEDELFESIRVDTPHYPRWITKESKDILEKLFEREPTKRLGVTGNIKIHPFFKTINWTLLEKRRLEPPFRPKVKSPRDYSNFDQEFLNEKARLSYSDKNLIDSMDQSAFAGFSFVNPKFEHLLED

IC50 (Haspin) | IC50 (PKCd) | IC50 (PKCtheta) | CB1 (h) (agonist effect) (EC50) (CB1 (h)) | CB2 (h) (antagonist effect) (IC50) (CB2 (h)) | M1 (h) (agonist effect) (EC50) (M1 (h)) | EC50 (μ (MOP) (h)) | IC50 (Serotonin transporter) | Difference between activities of S- and R-enantiomer against ROCK1 (ROCK1) | Difference between activities of S- and R-enantiomer against ROCK2 (ROCK2) | IC50 (CB2 (h)) | Compound
297 nM | 0.9 nM | 9.9 nM | Inactive | Inactive | Inactive | 84000 nM | 11000 nM | no statistically meaningful difference | no statistically meaningful difference | – | NCc1ccc(C(=O)Nc2ccncc2F)cc1-c1cccc(C(=O)Nc2ccc(SC[C@H]3CCOC3=O)cc2)c1 [S-enantiomer]
134 nM | < 0.5 nM | 4.4 nM | Inactive | – | Inactive | 3000 nM | 6000 nM | no statistically meaningful difference | no statistically meaningful difference | 38000 nM | NCc1ccc(C(=O)Nc2ccncc2F)cc1-c1cccc(C(=O)Nc2ccc(SC[C@@H]3CCOC3=O)cc2)c1 [R-enantiomer]
